Measurements taken from patent US10857112B2, “Small molecule inhibitors of RNA binding motif (RBM) proteins for the treatment of acute cellular injury” (University of Pittsburgh—Of the Commonwealth System of …, priority 2012, dated 2020).

Legend:
in vitro = settings: rat, decrease in neuronal viability, 250 nM STS alone
Procedure: (§1) At D.I.V. 11, ½ media was collected (conditioned media) and mixed with an equal volume fresh neurobasal media (to make the 24 hour treatment media). STS was prepared at the desired concentration in treatment media, with or without experimental drugs (AQ2S or LY294002). The remaining growth maintenance media was replaced with 100 μL, of treatment media per well of a 96-well plate (or 2 mL for a six-well plate) for 24 hours.
(§2) The LDH Cytotoxicity Assay Kit II was purchased from Abcam (Cambridge, Mass., USA). Neurons were cultured in 96-well format and subjected to STS injury ±AQ2S for 24 hours (in 100 μL, total media volume). At 23 hours maximum LDH release (positive control) was prepared by adding 10 μL, cell lysis reagent directly to a few non-injured wells (i.e., no STS or AQ2S). At the end of the 24 hour injury period, 80 μL, of media was transferred to a new 96-well plate. Plates were spun at ˜500 g for 5 minutes. 10 μL, of cell culture treatment media was added to a new black-walled plate and advanced WST detection reagent added. The mix was incubated for ˜15 minutes and absorbance measured (OD 450 nm). Fresh culture media was used as a negative control. Cytotoxicity was calculated using the standard formula: cytotoxicity %=(sample LDH−negative-control LDH)/(maximum LDH release−negative-control LDH)×100.

[1] = tested on: primary rat cortical neurons; test: STS injury, neuronal viability and cytotoxicity
Procedure: as §1, §2

[2] = tested on: primary rat cortical neurons; test: H2O2 injury, neuronal viability 24 h (CellTiter-Blue); settings: 40 μM H2O2
[3] = biological target: T1, recombinant active caspase-3 (Homo sapiens, UniProt P42574); test: In vitro cell-free caspase-3 drug screening assay (DEVD-AFC); type: biochemical
T1 construct: The reaction mixture was combined with recombinant active caspase-3 and a DEVD-AFC probe; purchased PromoKine (Heidelberg, Germany)
T1 sequence (P42574 29-175 limits assumed): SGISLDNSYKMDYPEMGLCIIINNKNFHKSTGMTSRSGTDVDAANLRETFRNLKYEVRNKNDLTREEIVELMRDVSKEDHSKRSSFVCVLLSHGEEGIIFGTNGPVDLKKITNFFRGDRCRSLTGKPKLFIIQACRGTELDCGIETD
T1 sequence (P42574 176-277 limits assumed): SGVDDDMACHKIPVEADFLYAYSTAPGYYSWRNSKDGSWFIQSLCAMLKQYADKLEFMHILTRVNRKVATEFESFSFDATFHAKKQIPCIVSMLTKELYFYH
Procedure: An in vitro caspase drug screening kit was purchased from PromoKine (Heidelberg, Germany), and used according to the manufacturer's instructions. Briefly, all drugs were dissolved in DMSO and diluted in double-distilled water to desired concentration. The reaction mixture was combined with recombinant active caspase-3 and a DEVD-AFC probe. Active caspase-3 cleaves the DEVD-recognition sequence and releases fluorescent AFC. The amount of AFC detected is a measure of caspase-3 activity. Reactions were prepared in black-walled 96-well plates, incubated at 37° C., and AFC release measured with an AFC filter (Ex: 405 nm, Em: 495-505 nM) on a GLOMax-Multi Microplate Reader (Promega).

AKT = test: Western blot of AKT activation (pAKT473); type: cell-based, rat; settings: 50 μM; baseline and 250 nM STS 6 hours
Procedure: AKT is a key pro-survival kinase that is dysregulated by acute brain injury. Many diverse therapies used to prevent neuronal death activate AKT, including small molecules, endogenously derived survival proteins, and other non-pharmacology based treatments like therapeutic hypothermia. To further elucidate the mechanisms of AQ2S-mediated neuroprotection, the level of activated (phosphorylated) AKT was measured by western blot.
Neurons used for Western blot analysis for grown in 6-well plates. Briefly, neurons were treated with experimental compounds for the indicated time/conditions. At the end of each experiment, neurons were washed in ice cold PBS and harvested in 65 μL RIPA buffer containing protease inhibitors, phosphatase inhibitors, and EDTA. Extracts were collected in 0.5 mL tubes and sonicated for 20-30 seconds. Cell extracts were then spun at 4° C./16,000 g/10 minutes and stored at −80° C. until use. Frozen extracts were thawed on ice and protein concentration measured using the BCA assay (PIERCE). […] of sample protein was loaded per well of a 7.5% SDS precast gel (Biorad), and run for 30 minutes to 1 hour at 200 V. Kaleidoscope protein standards (Biorad) were run parallel to neuron extracts. Proteins were then transferred to PDVF membranes (run at 100 V/4° C./1.5 hours). PDVF membranes were washed once in tris buffered saline (TBS) and blocked for 1 hour in tris buffered saline/tween-20 with 7.5% nonfat milk (TBS-T/milk). Blots were incubated overnight at 4° C. with primary antibodies in TBS-T/milk. Cell Signaling Technology: phospho-AKT473, AKT Total, phospho-ERK1/2, ERK Total, cleavage caspase-3. Santa Cruz Antibodies: NF-κB p50 subunit, NF-κB p65 subunit, and beta actin. Calbiochem: 4-HNE antibody. Blots were washed 3 times (5 minutes each) with TBS, and incubated with secondary antibodies for 2 hours. Invitrogen: goat anti-rabbit or goat anti-mouse. Blots were washed 3 times (5 minutes each) with TBS, and incubated for 1 minute in HRP detection solution (Amersham). Films were exposed to blots and developed (SRX-101A, Konica Minolta Medical & Graphic Inc.). Re-probed blots (e.g. beta actin, AKT total, ERK total) were stripped in western blot stripping buffer (Fischer Scientific) for 10 minutes, washed once with TBS, re-blocked in TBS-T/milk for 1 hour, and incubated overnight with new primary antibody. Films were scanned (EPSON GT 20,000), and densitometry performed using UN-SCAN-IT software (Silk Scientific).

PI3K = settings: studies in cancer cells; cited from earlier work

With `CN[C@@H]1C[C@H]2O[C@@](C)([C@@H]1OC)n1c3ccccc3c3c4c(c5c6ccccc6n2c5c31)C(=O)NC4` [STS, staurosporine, reference compound] the cytotoxicity at 24 h, 250 nM (in vitro) was 81.1% and the “decrease in neuronal viability” value ([1]; 250 nM STS alone, 24 h) was 71.5%.

For `O=C1c2c(O)cccc2C([C@@H]2O[C@H](CO)[C@@H](O)[C@H](O)[C@H]2O)c2cc(CO)cc(O)c21` (some centres unmarked) [aloin], the “neuronal death after H2O2 injury” value ([2]; post-treatment, any concentration tested, 24 hours post-injury) was “ineffective at any concentration tested”.

In the case of `Cc1cc(O)c2c(c1)C(=O)c1cc(O)cc(O)c1C2=O` [emodin, 6-methyl-1,3,8-trihydroxyanthraquinone], the “activity of recombinant caspase-3” value [3] is listed as “not a direct caspase inhibitor in the cell-free assay”, the pAKT473 (AKT) is listed as “abolished baseline and injury induced AKT activation” and the IC50 (PI3K) is listed as 3.3 µM. For the same molecule, the “neuronal death after H2O2 injury” value ([2]; post-treatment 5 μM, 24 h) was “failed to protect neurons”, the “neuronal death after H2O2 injury” value ([2]; post-treatment 25 μM, 24 h) was “failed to protect neurons” and the “neuronal death after H2O2 injury” value ([2]; post-treatment 50 μM, 24 h) was “exacerbated cell death”.

For ZVAD-fmk [reference compound], the “activity of recombinant caspase-3” value [3] was “significantly reduced the activity of recombinant caspase-3” and the “cell viability, comparison of neuroprotectants” value ([1]; 250 nM STS co-administered 24 hours) was “increased cell viability”.
